Series [1] concerns GL261 murine brain tumor cells. Description: GL261 potentially lethal damage repair (PLDR). The class given is cell-based. As for the experimental part: PLDR was also measured using the 10% survival level in both control and Tetrac treated-cells, and was also done for both exponentially growing and plateau phase cells. The total 10% survival dose was given, and then cells were placed back into the 37° C. incubator for various periods of time. At 0, 0.5, 1.0, 1.5, 2.0, 3.0, 4.0, 6.0, 8.0, and 10.0 hours, flasks were removed, and processed for survival assessment.
To investigate the effects of tetrac on SLDR and PLDR, cells were chosen that had been given a one-hour treatment with tetrac at two different times, i.e., at 70 and 270 hours post-seeding).

Series [2] has as its system MDA-MB-231 cells gene expression. Description: RNA microarray of MDA-MB-231 cells (Example 17). The class given is cell-based, human. The following applies: 24 h. As for the experimental part:
Expression of ˜54,000 transcripts was analyzed in control and drug-treated cultures, using Affymetrix Human Genome U133 plus 2.0 microarrays. Subsequent analysis was focused on genes affected by treatment at p<0.01. There was 93% concordance between Tetrac and Tetrac NP in terms of genes affected; notable disparities included downregulation of epidermal growth factor receptor (EGFR) by Tetrac NP and no affect of unmodified Tetrac on this gene.

A further series can be described thus: Solubility. The class given is physicochemical. As to the method: Yield: 50%; off-white solid; recrist. solvent.: EtOH; TLC: Rf=0.43 (EtOAc/EtOH 9/1); RPTLC: Rf=0.43 (AcOH/H2O 8/2); mp=136° C.; IR (υ cm^−1): 1730 (CO); ^1H NMR (DMSO-d 6) δ (ppm): 7.79 (s, 2H, ArH), 7.14 (s, 2H, ArH), 4.06-4.02 (m, 2H, CH2), 3.93-3.89 (q, J=7.0 Hz, 2H, CH2), 3.59-3.56 (t, J=7.0 Hz, 1H, CH), 2.80-2.77 (m, 2H, CH2), 1.88 (br, 1H, NH), 1.41-1.39 (t, J=7.0 Hz, 3H, CH3), 1.15-1.12 (t, J=7.0 Hz, 3H, CH3); MS (ESI+) m/z 911.7[(M+DMSO)^+, 100], 833.7 [(M+H)+, 75]; Anal. Calcd. for C19H19I4NO4: C, 27.40; H, 2.30; N, 1.68. Found: C, 27.54; H, 1.94; N, 1.66. Solubility 10^−3M in water after preparing a solution at 10^−1M in DMSO.
When looking at the amorphous state, the solid was not stable and quickly returned to the crystal state. Thus, Tetrac was used as a salt with Na^+ as the counterion which reduced the use of DMSO to 10%. Then all analogs were solubilized with 10% DMSO in water for the TiPS protected analogs and in PBS for the others.

Consider one compound from patent publication US9839614B2, “Nanoparticle and polymer formulations for thyroid hormone analogs, antagonists, and formulations and uses thereof” (NANOPHARMACEUTICALS LLC, priority 2009, dated 2017).

On to `O=C(O)Cc1cc(I)c(Oc2cc(I)c(O)c(I)c2)c(I)c1` [Tetrac, tetraiodothyroacetic acid], for which the “factor of inhibition of PLDR” value in series [1] (exponential cells) is on record as 1.9. In addition, the “factor of decrease of PLDR expression” value in series [1] (plateau phase cells) came to 3.4. Moreover, the “Change: CDKN2C” value in series [2] (10^−7M (Tetrac equivalent), hormone-stripped serum) is listed as “↑”. In series [2] (10^−7M), the “Change: BCL2L14” value was “↑”, the “Change: CASP2” value is reported as “↑”, the “Change: CBY1” value is listed as “↑” and the “Change: CTNNA1” value is “↓”. Moreover, in series [2] (10^−7M), the “Change: CTNNA2” value is given as “↓”, the “Change: CTSL1” value is given as “↓”, the “Change: CXCL10” value is given as “↑” and the “Change: Cyclins” value is “↓”. Besides, in series [2] (10^−7M), the “Change: EDN1” value is listed as “↑”, the “Change: Interleukins” value was “↓”, the “Change: MCL1” value is on record as “↓” and the “Change: NR1D1” value was “↓”. In series [2] (10^−7M), the “Change: THBS1” value was “↑”, the “Change: XIAP” value is “↓” and the “epidermal growth factor receptor (EGFR) expression” value is given as “no affect”. The solubility in water entry in “Solubility” is “difficult to solubilize in water”.
